Measurements as given in patent publication US10745398B2, “2-(het)aryl-substituted fused heterocycle derivatives as pesticides” (Bayer CropScience Aktiengesellschaft, priority 2015, dated 2020).

Legend:
[1] = log P (neutral) by HPLC on reversed-phase column (C 18), EEC Directive 79/831 Annex V.A8; type: physicochemical; details: HPLC reversed-phase C 18, 55° C., neutral range pH 7.8, ammonium hydrogencarbonate/acetonitrile; for chromatographic logP: reversed-phase HPLC column (C 18)
[2] = tested on: adult cat fleas (Ctenocephalides felis); test: Ctenocephalides felis - in vitro contact tests with adult cat fleas; type: in vivo; details: application rate 5 μg/cm^2 (500 g/ha), after 48 h
Experimental: For the coating of the test tubes, 9 mg of active compound are first dissolved in 1 ml of acetone p.a. and then diluted to the desired concentration with acetone p.a. 250 μl of the solution are distributed homogeneously on the inner walls and the base of a 25 ml test tube by turning and rocking on an orbital shaker (rocking rotation at 30 rpm for 2 h). With 900 ppm active compound solution and internal surface 44.7 cm^2, given homogeneous distribution, an area-based dose of 5 μg/cm^2 is achieved.
After the solvent has evaporated off, the tubes are populated with 5-10 adult cat fleas (Ctenocephalides felis), sealed with a perforated plastic lid and incubated in a horizontal position at room temperature and ambient humidity. After 48 h, efficacy is determined. To this end, the test tubes are stood upright and the fleas are knocked to the base of the tube. Fleas which remain motionless at the base or move in an uncoordinated manner are considered to be dead or moribund.
100% efficacy means that all the fleas were dead or moribund. 0% efficacy means that no fleas were harmed.

[3] = tested on: engorged adult female cattle ticks (Boophilus microplus); test: Boophilus microplus - injection test; type: in vivo; details: application rate 20 μg/animal, assessed after 7 days
Experimental: (§1) Solvent: dimethyl sulphoxide
To produce a suitable active compound preparation, 10 mg of active compound are mixed with 0.5 ml of solvent and the concentrate is diluted with solvent to the desired concentration.
1 μl of the active compound solution is injected into the abdomen of 5 engorged adult female cattle ticks (Boophilus microplus). The animals are transferred into dishes and kept in a climate-controlled room.
Efficacy is assessed after 7 days by laying of fertile eggs. Eggs which are not visibly fertile are stored in a climate-controlled cabinet until the larvae hatch after about 42 days. An efficacy of 100% means that none of the ticks has laid any fertile eggs; 0% means that all the eggs are fertile.

[4] = tested on: unfed adult cat fleas (Ctenocephalides felis); test: Ctenocephalides felis - oral test; type: in vivo; details: application rate 100 ppm in citrated cattle blood, after 2 days
Experimental: as §1
To produce a suitable active compound preparation, 10 mg of active compound are mixed with 0.5 ml of dimethyl sulphoxide. Dilution with citrated cattle blood gives the desired concentration.
About 20 unfed adult cat fleas (Ctenocephalides felis) are placed into a chamber which is closed at the top and bottom with gauze. A metal cylinder whose bottom end is closed with parafilm is placed onto the chamber. The cylinder contains the blood/active compound preparation, which can be imbibed by the fleas through the parafilm membrane.
After 2 days, the kill in % is determined. 100% means that all of the fleas have been killed; 0% means that none of the fleas have been killed.

[5] = tested on: L1 larvae of the Australian sheep blowfly (Lucilia cuprina); test: Lucilia cuprina test; type: in vivo; details: application rate 100 ppm, after 2 days
Experimental: as §1
(§2) To produce a suitable active compound preparation, 10 mg of active compound are mixed with 0.5 ml of dimethyl sulphoxide, and the concentrate is diluted with water to the desired concentration.
About 20 L1 larvae of the Australian sheep blowfly (Lucilia cuprina) are transferred into a test vessel containing minced horsemeat and the active compound preparation of the desired concentration.
After 2 days, the kill in % is determined. 100% means that all the larvae have been killed; 0% means that no larvae have been killed.

[6] = tested on: adult houseflies (Musca domestica); test: Musca domestica test; type: in vivo; details: application rate 100 ppm, after 2 days
Experimental: as §1, §2
Vessels containing a sponge treated with sugar solution and the active compound preparation of the desired concentration are populated with 10 adult houseflies (Musca domestica).
After 2 days, the kill in % is determined. 100% means that all of the flies have been killed; 0% means that none of the flies have been killed.

[7] = tested on: green peach aphid (Myzus persicae); test: Myzus persicae - spray test; type: in vivo; details: application rate 500 g/ha, Chinese cabbage leaf discs, after 5-6 days
Experimental: Solvent: 78 parts by weight of acetone • • 1.5 parts by weight of dimethylformamide
(§3) Emulsifier: alkylaryl polyglycol ether
(§4) To produce a suitable active compound preparation, 1 part by weight of active compound is dissolved with the stated parts by weight of solvent and made up with water containing an emulsifier concentration of 1000 ppm until the desired concentration is attained. To produce further test concentrations, the preparation is diluted with emulsifier-containing water.
Discs of Chinese cabbage leaves (Brassica pekinensis) infested by all stages of the green peach aphid (Myzus persicae) are sprayed with an active compound preparation of the desired concentration.
After 5-6 days, the efficacy in % is determined. 100% means that all the aphids have been killed; 0% means that no aphids have been killed.

[8] = tested on: larvae of the mustard beetle (Phaedon cochleariae); test: Phaedon cochleariae - spray test; type: in vivo; details: application rate 500 g/ha, Chinese cabbage leaf discs, after 7 days
Experimental: (§5) Solvent: 78.0 parts by weight of acetone • • 1.5 parts by weight of dimethylformamide
as §3, §4
After 7 days, the efficacy in % is determined. 100% means that all the beetle larvae have been killed; 0% means that no beetle larvae have been killed.

[9] = tested on: caterpillars of the armyworm (Spodoptera frugiperda); test: Spodoptera frugiperda - spray test; type: in vivo; details: application rate 500 g/ha, maize leaf discs, after 7 days
Experimental: as §5, §3, §4
Leaf discs of maize (Zea mays) are sprayed with an active compound preparation of the desired concentration and, after drying, populated with caterpillars of the armyworm (Spodoptera frugiperda).
After 7 days, the efficacy in % is determined. 100% means that all the caterpillars have been killed; 0% means that no caterpillar has been killed.

[10] = tested on: greenhouse red spider mite (Tetranychus urticae); test: Tetranychus urticae - spray test, OP-resistant; type: in vivo; details: application rate 500 g/ha, bean leaf discs, after 6 days
Experimental: as §5, §3, §4
Discs of bean leaves (Phaseolus vulgaris) infested with all stages of the greenhouse red spider mite (Tetranychus urticae) are sprayed with an active compound preparation of the desired concentration.
After 6 days, the efficacy in % is determined. 100% means that all the spider mites have been killed; 0% means that no spider mites have been killed.

[11] = tested on: southern root-knot nematode (Meloidogyne incognita); test: Meloidogyne incognita test; type: in vivo; details: application rate 20 ppm, lettuce, after 14 days
Experimental: Solvent: 125.0 parts by weight of acetone
To produce a suitable preparation of active compound, 1 part by weight of active compound is mixed with the stated amount of solvent and the concentrate is diluted with water to the desired concentration.
Vessels are filled with sand, active compound solution, an egg/larvae suspension of the southern root-knot nematode (Meloidogyne incognita) and lettuce seeds. The lettuce seeds germinate and the plants develop. The galls develop on the roots.
After 14 days, the nematicidal efficacy in % is determined by the formation of galls. 100% means that no galls were found; 0% means that the number of galls on the treated plants corresponds to the untreated control.

| chromatographic logP [1] | SMILES | log P (neutral) [1] | efficacy (fleas dead or moribund) [2] | efficacy (no laying of fertile eggs) [3] | efficacy (kill in %) [4] | efficacy (kill in %) [5] | efficacy (kill in %) [6] | efficacy (aphids killed) [7] | efficacy (beetle larvae killed) [8] | efficacy (caterpillars killed) [9] | efficacy (spider mites killed) [10] | nematicidal efficacy (formation of galls) [11] |
| --- | --- | --- | --- | --- | --- | --- | --- | --- | --- | --- | --- | --- |
|  | CCS(=O)(=O)c1ccc(-n2cnn(-c3ccccc3F)c2=O)nc1-c1nc2cc(C(F)(F)F)ncc2n1C [Example I-1] | Example I-1: logP (neutral): 3.03 ^1H-NMR(400.0 MHz, d6-DMSO): δ = | 100% | 80% | 100% | 100% | 80% | 90% | 100% | 100% | 100% |  |
|  | CCS(=O)(=O)c1ccc(-n2ccn(-c3ccc(Br)cc3)c2=O)nc1-c1nc2cc(C(F)(F)F)ncc2n1C [Example I-3] | Example I-3: logP (neutral): 3.87 ^1H-NMR(400.0 MHz, d6-DMSO): δ = |  | 95% | 100% | 100% | 90% | 90% | 100% | 100% |  |  |
|  | CCS(=O)(=O)c1ccc(-n2ncn(-c3ccc(F)cc3)c2=O)nc1-c1nc2cc(C(F)(F)F)ncc2n1C [Example I-8] | Example I-8: logP (neutral): 2.75 ^1H-NMR(400.0 MHz, d6-DMSO): δ = |  |  |  |  |  | 100% | 100% | 100% |  | 90% |
|  | CCS(=O)(=O)c1ccc(-n2ncn(-c3ccccc3)c2=O)nc1-c1nc2cc(C(F)(F)F)ncc2n1C [Example I-15] | Example I-15: logP (neutral): 2.70 1H-NMR(400.0 MHz, d6-DMSO): □ = | 100% | 80% | 100% | 100% |  |  | 100% | 100% | 70% | 100% |
|  | CCS(=O)(=O)c1ccc(-n2ncn(-c3cccnc3)c2=O)nc1-c1nc2cc(C(F)(F)F)ncc2n1C [Example I-17] | Example I-17: logP (neutral): 2.06 1H-NMR(400.0 MHz, d6-DMSO): □ = |  |  | 95% | 100% |  | 90% | 100% |  | 90% | 100% |
|  | CCS(=O)(=O)c1ccc(-n2ncn(-c3ccccc3F)c2=O)nc1-c1nc2cc(C(F)(F)F)ncc2n1C [Example I-18] | Example I-18: logP (neutral): 2.73: 1H-NMR(400.0 MHz, d6-DMSO): □ = | 100% | 95% | 100% | 100% | 85% | 90% | 100% | 100% |  |  |
|  | CCS(=O)(=O)c1ccc(-n2ccc(-c3ncccc3Cl)n2)nc1-c1nc2cc(C(F)(F)F)ncc2n1C [Example I-24] | Example I-24: logP (neutral): 2.80 1H-NMR(400.0 MHz, d6-DMSO): □ = | 100% |  |  | 100% |  |  | 100% | 100% |  |  |
| 2.73 | CCS(=O)(=O)c1ccc(-c2ccn(-c3cccnc3)n2)nc1-c1nc2cc(C(F)(F)F)ncc2n1C [Example I-30, 2-{3-(Ethylsulfonyl)-6-[1-(pyridin-3-yl)-1H-pyrazol-3-yl]pyridin-2-yl}-3-methyl-6-(trifluoromethyl)-3H-imidazo[4,5-c]pyridine] |  |  |  |  | 100% |  | 100% | 100% | 100% |  | 90% |
|  | CCS(=O)(=O)c1ccc(-n2cnn(-c3ccccc3F)c2=O)nc1-c1nc2cc(C(F)(F)F)cnc2n1C [Example I-32] | Example I-32: logP (neutral): 3.52 1H-NMR(400.0 MHz, d6-DMSO): □ = |  | 80% | 100% | 100% | 100% | 90% | 100% | 100% |  |  |
| 3.52 | CCS(=O)(=O)c1ccc(-n2ncn(-c3ccc(Cl)cc3)c2=O)nc1-c1nc2cc(C(F)(F)F)cnc2n1C [Example I-33, 4-(4-Chlorophenyl)-2-{5-(ethylsulfonyl)-6-[3-methyl-6-(trifluoromethyl)-3H-imidazo[4,5-b]pyridin-2-yl]pyridin-2-yl}-2,4-dihydro-3H-1,2,4-triazol-3-one] |  |  |  |  |  |  | 90% | 100% | 100% | 90% | 100% |
